# Experiments:
# Format in all cases: cell-based
# EML4-ALK Ba/F3 = target: T1, EML4-ALK Ba/F3 (Homo sapiens, UniProt Q9UM73); test: Cell proliferation assay, EML4-ALK Ba/F3 stable cell line (CellTiter-Glo); conditions: Ba/F3-EML4-ALK wild type (variant 1) cells, 72 hours compound incubation; read-out: Cell Proliferation IC50 EML4-ALK Ba/F3
# T1 construct: fused on or other part: Q9HC35 (Echinoderm microtubule-associated protein-like 4)
# Text: (§1) Creation of CD74-ROS1 and EML4-ALK Ba/F3 Stable Cell Lines and Cell Proliferation Assays.
# (§2) The CD74-ROS1 wild-type gene and EML4-ALK wild-type gene (variant 1) were synthesized at GenScript and cloned into pCDH-CMV-MCS-EF1-Puro plasmid (System Biosciences, Inc). Ba/F3-CD74-ROS1 and Ba/F3-EML4-ALK wild type cell lines were generated by infecting Ba/F3 cells with lentivirus containing CD74-ROS1 wide-type and EML4-ALK wild type. Stable cell lines were selected by puromycin treatment, followed by IL-3 withdrawal. 3000 cells were seeded in 384 well white plate overnight before compound treatment. Cell proliferation was measured using CellTiter-Glo luciferase-based ATP detection assay (Promega) following the manufactures's protocol after 72 hours of various concentration of compound incubation. IC50 determinations were performed using GraphPad Prism software (GraphPad, Inc., San Diego, Calif.).
# CD74-ROS1 Ba/F3 = target: T2, CD74-ROS1 Ba/F3 (Homo sapiens, UniProt P08922); test: Cell proliferation assay, CD74-ROS1 Ba/F3 stable cell line (CellTiter-Glo); conditions: Ba/F3-CD74-ROS1 wild type cells, 72 hours compound incubation; read-out: Cell Proliferation IC50 CD74-ROS1 Ba/F3
# T2 construct: fused on or other part: P04233 (HLA class II histocompatibility antigen gamma chain)
# T2 sequence (P08922 whole entry, change not shown, the tested form may be a part): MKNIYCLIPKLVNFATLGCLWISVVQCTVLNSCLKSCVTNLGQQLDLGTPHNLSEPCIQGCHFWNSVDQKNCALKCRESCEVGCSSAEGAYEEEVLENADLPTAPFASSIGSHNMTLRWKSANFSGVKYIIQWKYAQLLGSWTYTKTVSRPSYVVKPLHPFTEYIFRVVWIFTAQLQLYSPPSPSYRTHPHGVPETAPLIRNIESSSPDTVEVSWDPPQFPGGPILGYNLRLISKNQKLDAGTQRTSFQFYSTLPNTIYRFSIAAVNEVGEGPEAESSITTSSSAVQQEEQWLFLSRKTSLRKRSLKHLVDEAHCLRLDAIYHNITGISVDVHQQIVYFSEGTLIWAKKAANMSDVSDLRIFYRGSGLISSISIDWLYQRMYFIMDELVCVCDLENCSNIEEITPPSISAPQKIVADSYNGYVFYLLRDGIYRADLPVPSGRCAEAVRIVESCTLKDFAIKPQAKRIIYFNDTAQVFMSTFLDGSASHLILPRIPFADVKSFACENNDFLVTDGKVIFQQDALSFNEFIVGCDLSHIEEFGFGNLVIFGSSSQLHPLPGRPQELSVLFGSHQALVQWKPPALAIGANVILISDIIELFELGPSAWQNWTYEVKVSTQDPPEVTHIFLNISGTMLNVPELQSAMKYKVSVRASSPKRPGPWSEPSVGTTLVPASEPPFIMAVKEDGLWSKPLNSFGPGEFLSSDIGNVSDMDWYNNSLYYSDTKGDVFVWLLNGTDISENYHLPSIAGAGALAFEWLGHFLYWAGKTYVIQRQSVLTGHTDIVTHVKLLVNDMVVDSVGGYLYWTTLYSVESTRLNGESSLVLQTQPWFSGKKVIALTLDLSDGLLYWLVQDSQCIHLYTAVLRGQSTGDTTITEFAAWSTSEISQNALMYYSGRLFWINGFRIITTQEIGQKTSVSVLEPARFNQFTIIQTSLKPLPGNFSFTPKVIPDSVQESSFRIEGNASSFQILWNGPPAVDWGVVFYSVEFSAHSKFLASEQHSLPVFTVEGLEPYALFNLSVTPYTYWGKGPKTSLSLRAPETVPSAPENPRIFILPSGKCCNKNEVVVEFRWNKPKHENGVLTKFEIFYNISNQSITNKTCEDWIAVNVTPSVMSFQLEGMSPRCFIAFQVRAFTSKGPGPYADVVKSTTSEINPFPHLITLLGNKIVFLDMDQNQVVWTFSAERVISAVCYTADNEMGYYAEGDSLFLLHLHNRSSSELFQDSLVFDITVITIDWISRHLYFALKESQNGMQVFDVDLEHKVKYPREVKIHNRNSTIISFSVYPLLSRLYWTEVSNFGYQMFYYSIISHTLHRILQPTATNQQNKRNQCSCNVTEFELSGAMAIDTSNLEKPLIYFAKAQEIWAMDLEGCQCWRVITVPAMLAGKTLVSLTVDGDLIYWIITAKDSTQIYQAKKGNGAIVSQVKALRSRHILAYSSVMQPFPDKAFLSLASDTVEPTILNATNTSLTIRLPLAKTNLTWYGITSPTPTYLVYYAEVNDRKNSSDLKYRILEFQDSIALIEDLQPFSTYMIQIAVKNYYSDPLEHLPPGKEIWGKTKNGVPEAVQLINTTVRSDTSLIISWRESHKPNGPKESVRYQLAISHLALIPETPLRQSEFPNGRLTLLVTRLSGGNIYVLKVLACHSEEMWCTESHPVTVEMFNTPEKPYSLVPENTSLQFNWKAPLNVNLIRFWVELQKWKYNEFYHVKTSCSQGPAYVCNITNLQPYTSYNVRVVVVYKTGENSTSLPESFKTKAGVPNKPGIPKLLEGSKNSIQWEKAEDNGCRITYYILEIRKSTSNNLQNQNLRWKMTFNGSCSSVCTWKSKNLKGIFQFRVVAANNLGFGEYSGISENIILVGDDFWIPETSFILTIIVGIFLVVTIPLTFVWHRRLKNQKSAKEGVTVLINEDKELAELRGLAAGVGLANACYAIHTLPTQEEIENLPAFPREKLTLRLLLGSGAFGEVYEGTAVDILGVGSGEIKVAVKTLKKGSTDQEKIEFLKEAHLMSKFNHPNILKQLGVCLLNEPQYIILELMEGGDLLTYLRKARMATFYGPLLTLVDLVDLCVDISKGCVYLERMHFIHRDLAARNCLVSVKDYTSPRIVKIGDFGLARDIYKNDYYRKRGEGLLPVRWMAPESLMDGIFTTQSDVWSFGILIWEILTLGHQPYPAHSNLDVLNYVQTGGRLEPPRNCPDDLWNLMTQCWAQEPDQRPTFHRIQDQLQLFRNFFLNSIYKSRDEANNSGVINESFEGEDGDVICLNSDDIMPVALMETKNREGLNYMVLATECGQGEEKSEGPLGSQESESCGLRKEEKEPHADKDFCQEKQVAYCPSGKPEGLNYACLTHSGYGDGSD
# Text: as §1, §2
# [1] = tested on: Colorectal cell lines KM 12 (harboring endogenous TPM3-TRKA fusion gene); test: Cell proliferation assay, KM12 cells (CellTiter-Glo); conditions: Homo sapiens, 72 hours incubation
# Description: (§3) Cell Proliferation Assays.
# Colorectal cell lines KM 12 (harboring endogenous TPM3-TRKA fusion gene) cells were cultured in DMEM medium, supplemented with 10% fetal bovine serum and 100 U/mL of penicillin/streptomycin. 5000 cells were seeded in 384 well white plate for 24 hours before compounds treatment. Cell proliferation was measured using CellTiter-Glo luciferase-based ATP detection assay (Promega) following the manufactures's protocol after 72 hours incubation. IC50 determinations were performed using GraphPad Prism software (GraphPad, Inc., San Diego, Calif.). […] 5000 cells were seeded in 384 well white plate for 24 hours before compounds treatment. Cell proliferation was measured using CellTiter-Glo luciferase-based ATP detection assay (Promega) following the manufactures's protocol after 72 hours incubation. IC50 determinations were performed using GraphPad Prism software (GraphPad, Inc., San Diego, Calif.).
# [2] = tested on: T cell lymphoma Karpas-299 cell line (harboring endogenous NPM-ALK fusion gene); test: Cell proliferation assay, Karpas-299 cells (CellTiter-Glo); conditions: Homo sapiens, 72 hours incubation
# Description: as §3
# (§4) Colorectal cell lines KM 12 (harboring endogenous TPM3-TRKA fusion gene) cells were cultured in DMEM medium, supplemented with 10% fetal bovine serum and 100 U/mL of penicillin/streptomycin. 5000 cells were seeded in 384 well white plate for 24 hours before compounds treatment. Cell proliferation was measured using CellTiter-Glo luciferase-based ATP detection assay (Promega) following the manufactures's protocol after 72 hours incubation. IC50 determinations were performed using GraphPad Prism software (GraphPad, Inc., San Diego, Calif.). Alternatively, essential thrombocythemia cell line SET-2 cells (harboring endogenous JAK2 […] point mutation) or T cell lymphoma Karpas-299 cell line (harboring endogenous NPM-ALK fusion gene) were cultured in RPMI medium, supplemented with 10% fetal bovine serum and 100 U/mL of penicillin/streptomycin. 5000 cells were seeded in 384 well white plate for 24 hours before compounds treatment. Cell proliferation was measured using CellTiter-Glo luciferase-based ATP detection assay (Promega) following the manufactures's protocol after 72 hours incubation. IC50 determinations were performed using GraphPad Prism software (GraphPad, Inc., San Diego, Calif.).
# [3] = tested on: essential thrombocythemia cell line SET-2 cells (harboring endogenous JAK2 point mutation); test: Cell proliferation assay, SET-2 cells (CellTiter-Glo); conditions: Homo sapiens, 72 hours incubation, read-out: Cell Proliferation IC50 SET2
# Description: as §3, §4
# T1 sequence (Q9UM73 whole entry, change not shown, the tested form may be a part): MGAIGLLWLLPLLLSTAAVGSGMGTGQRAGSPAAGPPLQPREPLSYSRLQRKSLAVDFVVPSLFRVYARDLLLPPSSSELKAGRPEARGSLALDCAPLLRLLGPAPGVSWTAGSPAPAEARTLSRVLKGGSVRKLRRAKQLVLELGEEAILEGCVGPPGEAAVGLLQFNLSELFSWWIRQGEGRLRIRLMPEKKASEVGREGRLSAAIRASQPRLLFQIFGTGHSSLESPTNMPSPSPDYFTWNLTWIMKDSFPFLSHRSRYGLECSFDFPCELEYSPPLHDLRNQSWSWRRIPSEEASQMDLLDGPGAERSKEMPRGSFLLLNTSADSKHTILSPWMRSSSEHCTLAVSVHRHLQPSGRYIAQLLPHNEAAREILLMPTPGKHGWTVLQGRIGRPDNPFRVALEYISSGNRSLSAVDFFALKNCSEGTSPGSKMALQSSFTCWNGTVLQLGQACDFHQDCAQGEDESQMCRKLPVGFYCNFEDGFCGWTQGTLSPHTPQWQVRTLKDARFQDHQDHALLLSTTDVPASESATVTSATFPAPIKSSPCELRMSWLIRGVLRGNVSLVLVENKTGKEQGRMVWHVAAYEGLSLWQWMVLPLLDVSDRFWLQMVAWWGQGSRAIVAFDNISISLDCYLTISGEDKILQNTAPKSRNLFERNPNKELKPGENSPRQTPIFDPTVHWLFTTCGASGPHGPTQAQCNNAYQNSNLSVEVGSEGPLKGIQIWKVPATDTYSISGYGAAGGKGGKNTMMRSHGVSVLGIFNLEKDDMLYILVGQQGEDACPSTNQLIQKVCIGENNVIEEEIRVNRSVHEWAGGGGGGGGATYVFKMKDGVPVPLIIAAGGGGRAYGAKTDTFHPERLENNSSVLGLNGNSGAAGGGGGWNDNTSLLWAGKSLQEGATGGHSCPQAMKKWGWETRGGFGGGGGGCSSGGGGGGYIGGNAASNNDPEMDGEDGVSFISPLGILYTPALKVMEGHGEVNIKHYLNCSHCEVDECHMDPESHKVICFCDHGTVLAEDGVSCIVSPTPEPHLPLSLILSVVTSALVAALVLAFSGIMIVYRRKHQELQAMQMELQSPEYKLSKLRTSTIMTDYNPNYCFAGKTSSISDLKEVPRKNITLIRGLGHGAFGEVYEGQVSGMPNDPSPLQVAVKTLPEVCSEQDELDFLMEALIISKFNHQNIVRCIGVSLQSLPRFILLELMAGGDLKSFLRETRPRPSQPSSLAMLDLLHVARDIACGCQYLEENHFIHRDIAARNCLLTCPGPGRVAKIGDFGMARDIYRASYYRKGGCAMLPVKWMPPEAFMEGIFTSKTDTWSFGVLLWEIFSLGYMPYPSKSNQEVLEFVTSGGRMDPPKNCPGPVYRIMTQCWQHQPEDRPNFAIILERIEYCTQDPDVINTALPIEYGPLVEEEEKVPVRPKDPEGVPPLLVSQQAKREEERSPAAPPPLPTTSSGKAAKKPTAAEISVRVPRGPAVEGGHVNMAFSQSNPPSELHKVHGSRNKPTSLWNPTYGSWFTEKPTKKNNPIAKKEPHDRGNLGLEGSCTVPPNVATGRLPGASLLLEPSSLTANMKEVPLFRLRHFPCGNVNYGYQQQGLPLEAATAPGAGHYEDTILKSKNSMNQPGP
Structure (SMILES),GI50 (EML4-ALK Ba/F3),GI50 (CD74-ROS1 Ba/F3),IC50 [2],IC50 [1],IC50 [3]
"C[C@H]1Nc2ccn3ncc(c3n2)C(=O)N[C@@H](C(F)F)COc2ccc(F)cc21 [Compound 16, (6R,13R)-6-(difluoromethyl)-11-fluoro-13-methyl-6,7,13,14-tetrahydro-1,15-ethenopyrazolo[4,3-f][1,4,8,10]benzoxatriazacyclotridecin-4(5H)-one]",1910 nM,112 nM,470 nM,0.4 nM,665 nM
"C[C@H]1Nc2ccn3ncc(c3n2)C(=O)N[C@H](CO)COc2ccc(F)cc21 [Compound 8, (6R,13R)-11-fluoro-6-(hydroxymethyl)-13-methyl-6,7,13,14-tetrahydro-1,15-ethenopyrazolo[4,3-f][1,4,8,10]benzoxatriazacyclotridecin-4(5H)-one]",2130 nM,34.7 nM,1500 nM,17 nM,406 nM
"CC(C)(O)[C@H]1Nc2ccn3ncc(c3n2)C(=O)NCCOc2ccc(F)cc21 [Compound 24, (13S)-11-fluoro-13-(2-hydroxypropan-2-yl)-6,7,13,14-tetrahydro-1,15-ethenopyrazolo[4,3-f][1,4,8,10]benzoxatriazacyclotridecin-4(5H)-one]",475 nM,8 nM,264 nM,5 nM,1320 nM
"O=C1NCCOc2ccc(F)cc2[C@@H](CCO)Nc2ccn3ncc1c3n2 [Compound 22, (13R)-11-fluoro-13-(2-hydroxyethyl)-6,7,13,14-tetrahydro-1,15-ethenopyrazolo[4,3-f][1,4,8,10]benzoxatriazacyclotridecin-4(5H)-one]",> 10000 nM,1000 nM,352 nM,22 nM,854 nM
"CNC(=O)[C@@H]1CNC(=O)c2cnn3ccc(nc23)N[C@H](C)c2cc(F)ccc2O1 [Compound 14, (7S,13R)-7-(N-methylcarboxamide)-11-fluoro-13-methyl-6,7,13,14-tetrahydro-1,15-ethenopyrazolo[4,3-f][1,4,8,10]benzoxatriazacyclotridecin-4(5H)-one]",> 10000 nM,300 nM,> 10000 nM,180 nM,3780 nM
"CC[C@H]1CNC(=O)c2cnn3ccc(nc23)N[C@H](CC)c2cc(F)ccc2O1 [Compound 20, (7S,13R)-7,13-diethyl-11-fluoro-6,7,13,14-tetrahydro-1,15-ethenopyrazolo[4,3-f][1,4,8,10]benzoxatriazacyclotridecin-4(5H)-one]",151 nM,0.2 nM,144 nM,3 nM,404 nM
"CC[C@H]1COc2ccc(F)cc2[C@@H](C)Nc2ccn3ncc(c3n2)C(=O)N1 [Compound 4, (6S,13R)-6-ethyl-11-fluoro-13-methyl-6,7,13,14-tetrahydro-1,15-ethenopyrazolo[4,3-f][1,4,8,10]benzoxatriazacyclotridecin-4(5H)-one]",892 nM,0.2 nM,1370 nM,0.3 nM,1370 nM
"C[C@H]1Nc2ccn3ncc(c3n2)C(=O)NC[C@H](C(F)F)Oc2ccc(F)cc21 [Compound 18, (7R,13R)-7-(difluoromethyl)-11-fluoro-13-methyl-6,7,13,14-tetrahydro-1,15-ethenopyrazolo[4,3-f][1,4,8,10]benzoxatriazacyclotridecin-4(5H)-one]",28.4 nM,0.2 nM,24.7 nM,0.2 nM,98.6 nM
"C[C@H]1Nc2ccn3ncc(c3n2)C(=O)N[C@H](CF)COc2ccc(F)cc21 [Compound 11, (6S,13R)-11-fluoro-6-(fluoromethyl)-13-methyl-6,7,13,14-tetrahydro-1,15-ethenopyrazolo[4,3-f][1,4,8,10]benzoxatriazacyclotridecin-4(5H)-one]",2430 nM,18.9 nM,590 nM,2 nM,187 nM
"CC[C@@H]1COc2ccc(F)cc2[C@@H](C)Nc2ccn3ncc(c3n2)C(=O)N1 [Compound 2, (6R,13R)-6-ethyl-11-fluoro-13-methyl-6,7,13,14-tetrahydro-1,15-ethenopyrazolo[4,3-f][1,4,8,10]benzoxatriazacyclotridecin-4(5H)-one]",681 nM,0.7 nM,354 nM,6 nM,956 nM
"C[C@H]1Nc2ccn3ncc(c3n2)C(=O)N[C@H](C(F)F)COc2ccc(F)cc21 [Compound 17, (6S,13R)-6-(difluoromethyl)-11-fluoro-13-methyl-6,7,13,14-tetrahydro-1,15-ethenopyrazolo[4,3-f][1,4,8,10]benzoxatriazacyclotridecin-4(5H)-one]",2690 nM,3 nM,297 nM,0.2 nM,5 nM

# The next lines start with results.
GI50 (EML4-ALK Ba/F3),GI50 (CD74-ROS1 Ba/F3),IC50 [2],Structure (SMILES),IC50 [1],IC50 [3]
715 nM,22.6 nM,438 nM,"C[C@H]1Nc2ccn3ncc(c3n2)C(=O)NC[C@@H](CO)Oc2ccc(F)cc21 [Compound 7, (7S,13R)-11-fluoro-7-(hydroxymethyl)-13-methyl-6,7,13,14-tetrahydro-1,15-ethenopyrazolo[4,3-f][1,4,8,10]benzoxatriazacyclotridecin-4(5H)-one]",16.8 nM,190 nM
2030 nM,27.9 nM,794 nM,"C[C@H]1Nc2ccn3ncc(c3n2)C(=O)NC[C@H](CO)Oc2ccc(F)cc21 [Compound 5, (7R,13R)-11-fluoro-7-(hydroxymethyl)-13-methyl-6,7,13,14-tetrahydro-1,15-ethenopyrazolo[4,3-f][1,4,8,10]benzoxatriazacyclotridecin-4(5H)-one]",16.5 nM,852 nM
138 nM,0.2 nM,83 nM,"CC[C@H]1CNC(=O)c2cnn3ccc(nc23)N[C@H](C)c2cc(F)ccc2O1 [Compound 3, (7S,13R)-7-ethyl-11-fluoro-13-methyl-6,7,13,14-tetrahydro-1,15-ethenopyrazolo[4,3-f][1,4,8,10]benzoxatriazacyclotridecin-4(5H)-one]",0.3 nM,263 nM
0.2 nM,0.2 nM,73 nM,"C[C@H]1Nc2ccn3ncc(c3n2)C(=O)NC[C@H](CF)Oc2ccc(F)cc21 [Compound 9, (7R,13R)-11-fluoro-7-(fluoromethyl)-13-methyl-6,7,13,14-tetrahydro-1,15-ethenopyrazolo[4,3-f][1,4,8,10]benzoxatriazacyclotridecin-4(5H)-one]",0.4 nM,93 nM
5100 nM,130 nM,2270 nM,"C[C@H]1Nc2ccn3ncc(c3n2)C(=O)NC[C@H](CN(C)C)Oc2ccc(F)cc21 [Compound 12, (7R,13R)-7-[(dimethylamino)methyl]-11-fluoro-13-methyl-6,7,13,14-tetrahydro-1,15-ethenopyrazolo[4,3-f][1,4,8,10]benzoxatriazacyclotridecin-4(5H)-one]",42 nM,1960 nM
1480 nM,112 nM,3220 nM,"C[C@H]1Nc2ccn3ncc(c3n2)C(=O)N[C@@H](CN(C)C)COc2ccc(F)cc21 [Compound 13, (6S,13R)-6-[(dimethylamino)methyl]-11-fluoro-13-methyl-6,7,13,14-tetrahydro-1,15-ethenopyrazolo[4,3-f][1,4,8,10]benzoxatriazacyclotridecin-4(5H)-one]",69 nM,4030 nM
